PMC12563652 (International Journal of Molecular Sciences, 2025)

What was measured:
[1] = system: C57BL/6 mice; test: Inhibition of gastric emptying (mouse model, phenol red); format: in vivo; conditions: 5 mg/kg b.w. alone
Experimental: Fifty male C57BL/6 mice (22–27 g) were housed in standard cages while maintaining a 12:12-h light/dark cycle, with food and water available ad libitum. The experimental procedures were performed from 10:00 a.m. to 14:00 p.m.
The experiment was conducted according to Miyasaka et al. and Kotańska et al., with some minor modifications. Mice were subjected to a 20 h food deprivation and a 2 h water deprivation prior to testing. The animals received a vehicle (0.25 mL/mouse) alone or along with various compounds: JP-14 (10 mg/kg b. w.), RT (5 mg/kg body weight), metformin (100 mg/kg b. w.), or loperamide (reference compound; 10 mg/kg b. w.) via gastric gavage. Following a 45 min interval, phenol red (0.5 mL, 0.05% w/v) combined with glucose (1 g/kg body weight) was administered through the same route. Additionally, each group received an intraperitoneal injection of heparin (2500 U/mouse) 20 min prior to the collection of stomach contents. Seven mice treated with the vehicle were sacrificed immediately after the phenol red administration to serve as a standard control (representing 100% phenol red in the stomach at 0 min), establishing a baseline for maximum absorbance (100%). The leftover mice were sacrificed 30 min later. The stomachs were removed and homogenized using an OMNI homogenizer (OMNI International Company, Kennesaw, GA, USA), with 10 mL of 0.1 N NaOH. To 5 mL of homogenate, 0.5 mL of 20% w/v solution of trichloroacetic acid was incorporated to precipitate the proteins. Subsequently, the samples were centrifuged at 600× g for 15 min at a temperature of 20 °C, and 0.25 mL of supernatant was mixed with 1 mL of 0.5 N NaOH to achieve maximum color intensity. The concentration of phenol red was measured using spectrophotometry, with absorbance evaluated at a wavelength of 560 nm (MuLTISKAN.GO, Thermo Fisher Scientific Inc., Waltham, MA USA). For each mouse, the percentage of gastric emptying (GE %) was calculated using the following equation:(1) GE%=(Ac0−Ab)/(Ac0−Ac30)×100% where: Ac0 is the absorbance of the control gastric sample collected immediately after dye administration, and Ac30 is the absorbance of the control gastric sample collected 30 min after dye administration, i.e., Ac0–Ac30 = 100% gastric emptying.

[2] = biological target: T1, human TAAR1 (Homo sapiens, UniProt Q96RJ0); test: TAAR1 antagonist activity, Hit Hunter cAMP assay; format: cell-based; conditions: n.a. = no activity at 10–5 M; read-out: TAAR1 Ant EC50
T1 sequence (Q96RJ0 1-339): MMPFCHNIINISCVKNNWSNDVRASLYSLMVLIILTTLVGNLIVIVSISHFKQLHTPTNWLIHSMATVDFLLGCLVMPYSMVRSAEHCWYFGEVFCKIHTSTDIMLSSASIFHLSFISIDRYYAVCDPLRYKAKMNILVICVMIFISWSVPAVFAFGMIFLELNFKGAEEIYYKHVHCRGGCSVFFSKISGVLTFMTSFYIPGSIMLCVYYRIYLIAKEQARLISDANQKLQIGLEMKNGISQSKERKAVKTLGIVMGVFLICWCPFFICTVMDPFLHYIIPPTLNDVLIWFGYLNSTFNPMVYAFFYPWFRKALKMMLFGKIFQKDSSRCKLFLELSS

[3] = system: platelet aggregation in rat whole blood; test: In vitro collagen-induced platelet aggregation in rat whole blood (impedance aggregometry); format: cell-based; conditions: 100 µM, collagen 1.6 µg/mL
Experimental: In vitro platelet aggregation assays were conducted using freshly collected whole blood from rats, utilizing the Multiplate platelet function analyzer (Roche Diagnostics, Mannheim, Germany)—a five-channel device that measures electrical impedance, following methods described previously. Upon stimulation, platelets adhere to and aggregate on dual metal sensors within the test cuvette, causing an increase in electrical resistance, which corresponds to the number of platelets attached to the electrodes.
Blood was collected from the carotid artery of the rat into tubes coated with hirudin (S-Monovette, Sarstedt, Germany). A volume of 300 μL of the anticoagulated blood was mixed with 300 μL of prewarmed isotonic saline that contained the test compound or a vehicle control (0.1% DMSO) and incubated at 37 °C for 3 min under continuous stirring. Aggregation was triggered by adding collagen (final concentration: 1.6 µg/mL). Platelet activity was monitored for 6 min. Multiplate V2.04 software calculated the area under the curve (AUC) for each measurement to determine average platelet response.

[4] = system: HepG2 cells; test: Glucose consumption (Amplex Red assay) in HepG2 cells; format: cell-based, human; conditions: 10 µM; relative to vehicle-treated cells
Experimental: The HepG2 human hepatocellular carcinoma cell line (ATCC® HB-8065™) was cultured in DMEM supplemented with 10% FBS, 100 µg/mL streptomycin, and 100 IU/mL penicillin at 37 °C in 5% CO2. Cells were seeded in 96-well plates at a density of 10,000 cells/well and used for experiments 24 h after plating.
Stock solutions of test compounds were prepared at a concentration of 10 mM in dimethyl sulfoxide (DMSO). At least 1 mg of each substance was carefully measured and mixed with the right amount of DMSO. A series of dilutions were made in DMSO and then further diluted in phosphate-buffered saline before being introduced into the cell culture medium. Precipitation or opalescence was assessed prior to application.
The glucose uptake was measured with the Amplex® Red Glucose/Glucose Oxidase Assay Kit from Thermo Fisher Scientific, following the guidelines provided by the maker. Cell culture supernatants were collected and incubated with a reaction mix containing 100 μM Amplex® Red reagent, 0.2 U/mL horseradish peroxidase (HRP), and 1 U/mL glucose oxidase at room temperature for 30 min in the dark. Fluorescence was measured at 530 nm excitation and 590 nm emission using the POLARstar Omega plate reader (BMG Labtech).

N#Cc1c(C(F)(F)F)cc(-c2ccc(Cl)cc2)nc1SCC(=O)Nc1ncccn1 [RTI-7470-44]
effect on gastric emptying [1]: did not affect emptying
EC50 [2]: 168 ± 50.7 nM
reduction of collagen-induced platelet aggregation [3]: 41.75%
increase in glucose consumption (uptake) [4]: no significant changes
